We go through eight compounds from patent US8288394B2, “1-(1H-1,2,4-triazol-1-yl)butan-2-ol derivative for pharmaceutical use, and the use of a 1-(1H-1,2,4-triazol-1-yl)butan-2-ol derivative with substantially undefined crystal shape for preparing said 1-(1H-1,2,4-triazol-1-yl)butan-2-ol derivative” (Medichem, S.A., priority 2009, dated 2012).

Holding throughout (format): physicochemical
Data set [1] is described as follows: Particle size distribution, laser diffraction (Malvern Mastersizer S, wet). The settings on record: for Particle Size Distribution D50 / Particle Size Distribution D10 / Particle Size Distribution D90: by volume, mean of six; for D[3,2] (Sauter diameter, DMVS): mean diameter by surface area to volume; for Particle Size Distribution D[4,3]: mean diameter by volume. The source says: The particle size parameters measured in the present invention have been obtained by means of laser light diffraction technique, and specifically by means of a Malvern Mastersizer S particle size analyzer having characteristics as set out below. Namely, the laser source used was a 2 milliwatt Helium/neon laser (633 nm wavelength); the detection system was a Fourier Transform lens system; the sample was run using a 2.40 mm lens; the sample unit was a sample unit for wet measurement, and particularly was a MS1-Small volume Sample Dispersion Unit stirred cell. The wet dispersion was prepared by using deionized water as a dispersant, and the dispersion was controlled by stirring the unit cell. […] The characterization parameters (volume distributions) were measured for at least six times for each sample, and the result is a mean of said measured values for each sample.
The sample was run using the 2.40 mm lens. The sample unit was a MS1-Small Volume Sample Dispersion Unit stirred cell. The dispersant was deionized water. The sample particle size distribution was assumed to follow a normal distribution.
Analysis model: polydisperse. Setup presentation: 3_WATERF. Particle R.I.=(1.6800, 0.01). Dispersant R.I.=1.33.
This sample was sonicated for 2 minutes and delivered dropwise to the previously background and corrected measuring cell filled with dispersant (deionized water) until the obscuration reached the desired level. Volume distributions were obtained for at least six measures. For characterization, the values of D10, D50 and D90 (by volume), D[4,3] (mean diameter by volume) and D[3,2] (mean diameter by surface area to volume, or Sauter diameter) were specifically listed, each one being the mean of the six values available for each characterization parameter.
The notation DX [also written as D(v, 0.X)] means that X % of the particles have a diameter less than a specified diameter D. Thus a D90 [or D(v, 0.9)] of 100 μm means that 90% of the particles have a diameter less than 100 μm.

Data set [2] is described as follows: Particle density by pycnometry. The settings on record: pycnometry at 25° C., n-heptane, mean of three. Here is the method: The particle density experimental values were obtained by means of a pycnometer, specifically a 50 mL glass pycnometer. The measurements were carried out under technical characteristics as set out below. Namely, the determinations were done at 25° C.; the liquid of reference was n-heptane; the measurements were carried out three times, and the result is the mean of said measured values.

Data set [3] in a line: BET specific surface area (Micromeritics Gemini V, N2 at 77 K). The settings on record: N2 adsorption at 77 K. An excerpt: The specific surface area values disclosed in the present invention have been obtained by means of a specific surface area analysis technique based on the BET (Brunauer, Emmett and Teller) theory, which is a well-accepted theory known in the art for the calculation of surface areas of solids by means of measuring their physical adsorption of gas molecules (See S. Brunauer, P. H. Emmett and E. Teller, J. Am. Chem. Soc., 1938, 60, 309). In particular, the specific surface area values measured in the present invention have been calculated from the BET surface area plot obtained by measuring the quantity of nitrogen gas molecules adsorbed by a weighted amount of solid at different relative pressures (P/P0) within the range 0.05-0.3, at 77 K. Precisely, the measurement of the adsorption of gas molecules was carried out by means of a Micromeritics™ Gemini V equipment having the characteristics as set out below. Namely, the gas used for adsorption measure was nitrogen gas. […] The sample for analysis was degassed (at 30° C. for 10 minutes and at 80° C. for one hour). The determination of the adsorption of nitrogen was measured at 77 K and for twelve relative pressures sufficiently dispersed within in the range of 0.05 to 0.3. (i.e. twelve absolute pressures in the range of 38.425 mmHg to 230.000 mmHg relative to a saturated pressure of 764,480 mmHg).
The sample for analysis was degassed at 30° C. for 10 minutes and at 80° C. for one hour.

A short description of data set [4]: Sphericity factor calculated from density, Sauter diameter and specific surface area. The source says:
Flowability affects the ease with which the material is handled during processing into a pharmaceutical product. When the flowability is poor, problems occur with handling and processing during formulation. It is known that the shape of a particle affects its handling and flow properties. However, quantification of particle shape is extremely difficult for irregular and/or micronized particles. One of the most common ways of expressing the degree of irregularity of the particles is by means of the sphericity factor (ΨW), which is generally defined as the ratio between the surface area of a sphere having the same volume as the particle and the surface area of the particle:
[formula] where dv and ds are the equivalent volume and surface diameter, respectively (Part. Part. Syst. Charact. 1996, 13, 368-373).
Because sphericity factors are not calculated for each particle but for an assembly of particles, they have to be based on an average size. Thus, the sphericity factor will then be given by the following equation:
[formula] where SW is the powder specific surface area, ρ is the particle density and DMVS is the surface area mean diameter, also referred to as the mean volume-surface diameter, the Sauter diameter or D[3,2]. The Sauter diameter is defined as the diameter of a sphere that has the same volume/surface area ratio as the particle of interest.
A sphericity factor of 1.0 describes a perfect sphere with the greatest ease of flow (Encapsulated and powdered foods, CRC Press 2005). […] In this regard, sphericity factor values below 0.2 are usually found for low-flowability solids in form of platelets or needles. Therefore, a sphericity factor greater than 0.2 generally indicates an acceptable flowing material.

The mark [5] stands for this setting: listed as prior art micronized voriconazole.
The mark [6] stands for this setting: calculated using the measured particle density value.
The mark [7] stands for this setting: calculated using the reported crystal density value.

`C[C@@H](c1ncncc1F)[C@](O)(Cn1cncn1)c1ccc(F)cc1F` [Comparative Example 2, voriconazole, reference compound]: the “Particle Size Distribution D50” value in data set [1] was determined as 15.2 μm. Also, the “D[3,2] (Sauter diameter, DMVS)” value is listed as 8.3 μm in data set [1] and “about 8.3 μm” in data set [1] (setting [5]). Besides, in data set [1], the “Particle Size Distribution D[4,3]” value was found to be 28.7 μm. Besides, the “Density (experimental particle density ρ)” value (shortened to “Density”) was 1.40 g/mL in data set [2] and “about 1.400 g/cm^3” in data set [2] (setting [5]).
With `C[C@@H](c1ncncc1F)[C@](O)(Cn1cncn1)c1ccc(F)cc1F` [Example 2, voriconazole], in data set [1], the “Particle Size Distribution D10” value is listed as 7.4 μm; the “Particle Size Distribution D50” value is 29.7 μm; the “Particle Size Distribution D90” value is recorded as 102.8 μm; the “D[3,2] (Sauter diameter, DMVS)” value was found to be 15.4 μm. For the same compound, the “Particle Size Distribution D[4,3]” value in data set [1] amounted to 44.5 μm. Further, in data set [3], the “Specific Surface Area (BET), Sw” value came out at 0.9319 m^2/g. For the same compound, the “Density” value in data set [2] was 1.35 g/mL. Also, in data set [4] (setting [6]), the “sphericity factor Ψw” value is 0.31. The “sphericity factor Ψw” value in data set [4] (setting [7]) is 0.29.
In the case of `C[C@@H](c1ncncc1F)[C@](O)(Cn1cncn1)c1ccc(F)cc1F` [Example 3, voriconazole], in data set [1], the “Particle Size Distribution D10” value was found to be 6.0 μm; the “Particle Size Distribution D50” value is listed as 21.7 μm; the “Particle Size Distribution D90” value was determined as 56.2 μm; the “D[3,2] (Sauter diameter, DMVS)” value was 12.2 μm. Besides, in data set [1], the “Particle Size Distribution D[4,3]” value is on record as 27.3 μm. The “Specific Surface Area (BET), Sw” value in data set [3] is 1.0997 m^2/g. Moreover, the “Density” value in data set [2] stood at 1.33 g/mL. Moreover, in data set [4] (setting [6]), the “sphericity factor Ψw” value is 0.34. Besides, the “sphericity factor Ψw” value in data set [4] (setting [7]) was 0.31.
Turning to `C[C@@H](c1ncncc1F)[C@](O)(Cn1cncn1)c1ccc(F)cc1F` [Example 4, voriconazole], in data set [1], the “Particle Size Distribution D10” value was 6.0 μm; the “Particle Size Distribution D50” value was found to be 22.4 μm; the “Particle Size Distribution D90” value is listed as 64.0 μm; the “D[3,2] (Sauter diameter, DMVS)” value came to 12.3 μm. The “Particle Size Distribution D[4,3]” value in data set [1] worked out at 30.3 μm. Moreover, in data set [3], the “Specific Surface Area (BET), Sw” value is on record as 1.0992 m^2/g. Also, the “Density” value in data set [2] amounted to 1.32 g/mL. Besides, the “sphericity factor Ψw” value in data set [4] (setting [6]) is 0.34. Besides, in data set [4] (setting [7]), the “sphericity factor Ψw” value is on record as 0.31.
For `C[C@@H](c1ncncc1F)[C@](O)(Cn1cncn1)c1ccc(F)cc1F` [Example 5, voriconazole], in data set [1], the “Particle Size Distribution D10” value is listed as 7.6 μm; the “Particle Size Distribution D50” value stood at 32.3 μm; the “Particle Size Distribution D90” value stood at 92.7 μm; the “D[3,2] (Sauter diameter, DMVS)” value is 15.8 μm. The “Particle Size Distribution D[4,3]” value in data set [1] was 42.8 μm. For the same compound, the “Specific Surface Area (BET), Sw” value in data set [3] is 1.1451 m^2/g. Besides, the “Density” value in data set [2] worked out at 1.37 g/mL. Also, the “sphericity factor Ψw” value in data set [4] (setting [6]) is listed as 0.24. The “sphericity factor Ψw” value in data set [4] (setting [7]) is reported as 0.23.
For the compound `C[C@@H](c1ncncc1F)[C@](O)(Cn1cncn1)c1ccc(F)cc1F` [Example 6, voriconazole], in data set [1], the “Particle Size Distribution D10” value was determined as 8.6 μm; the “Particle Size Distribution D50” value is 33.4 μm; the “Particle Size Distribution D90” value turned out to be 92.3 μm; the “D[3,2] (Sauter diameter, DMVS)” value amounted to 17.2 μm. Besides, in data set [1], the “Particle Size Distribution D[4,3]” value is listed as 43.3 μm. The “Specific Surface Area (BET), Sw” value in data set [3] turned out to be 0.9769 m^2/g. In data set [2], the “Density” value stood at 1.40 g/mL. Also, the “sphericity factor Ψw” value in data set [4] (setting [6]) was 0.25. In addition, in data set [4] (setting [7]), the “sphericity factor Ψw” value was 0.23.
`C[C@@H](c1ncncc1F)[C@](O)(Cn1cncn1)c1ccc(F)cc1F` [Example 7, voriconazole]: in data set [1], the “Particle Size Distribution D10” value was 7.5 μm; the “Particle Size Distribution D50” value is recorded as 25.3 μm; the “Particle Size Distribution D90” value is listed as 57.4 μm; the “D[3,2] (Sauter diameter, DMVS)” value stood at 14.3 μm. The “Particle Size Distribution D[4,3]” value in data set [1] is reported as 24.9 μm. In data set [3], the “Specific Surface Area (BET), Sw” value is 1.1032 m^2/g. Further, in data set [4] (setting [7]), the “sphericity factor Ψw” value is given as 0.26.
With `C[C@@H](c1ncncc1F)[C@](O)(Cn1cncn1)c1ccc(F)cc1F` [Example 8, voriconazole], in data set [1], the “Particle Size Distribution D10” value turned out to be 2.5 μm; the “Particle Size Distribution D50” value stood at 7.3 μm; the “Particle Size Distribution D90” value amounted to 29.9 μm; the “D[3,2] (Sauter diameter, DMVS)” value was 5.2 μm. Further, the “Particle Size Distribution D[4,3]” value in data set [1] came to 14.2 μm. For the same compound, the “Specific Surface Area (BET), Sw” value in data set [3] was 1.5910 m^2/g. In addition, the “sphericity factor Ψw” value in data set [4] (setting [7]) was 0.50.
